Source: US10730874B2 (Shire Human Genetic Therapies, Inc., priority 2018, dated 2020)

Biological target: human activated kallikrein enzyme (plasma kallikrein) (Homo sapiens (Human), UniProt P03952)
Assay: Inhibition of human activated plasma kallikrein, fluorogenic peptide substrate assay, 500 pM enzyme format
Format: biochemical
Conditions: not given
Description: Example compounds were evaluated for inhibition of the human activated kallikrein enzyme in two formats of an assay employing a fluorogenic peptide substrate. In one assay format, the concentrations of reagents were as follows: 20 mM Tris pH 7.5, 1 mM EDTA, 150 mM sodium chloride, 0.1% PEG-400, 0.1% Triton X-100, 500 pM activated kallikrein enzyme, 300 uM Pro-Phe-Arg-7-amido-4-methylcoumarin substrate. Prior to reaction initiation with substrate, enzyme and inhibitors were preincubated for 30 min at RT. After initiation with substrate, reactions were incubated for 10 min at RT and fluorescence emission at 460 nm from 380 nm excitation measured with a microplate reader. In another assay format, the concentrations of reagents were as follows: 20 mM Tris pH 7.5, 1 mM EDTA, 150 mM sodium chloride, 0.1% PEG-400, 0.1% Triton X-100, 5 pM activated kallikrein enzyme, 300 uM Pro-Phe-Arg-7-amido-4-methylcoumarin substrate. Prior to reaction initiation with substrate, enzyme and inhibitors were preincubated for 30 min at RT. After initiation with substrate, reactions were incubated for 18 h at RT and fluorescence emission at 460 nm from 380 nm excitation measured with a microplate reader.

Sequence of human activated kallikrein enzyme (plasma kallikrein) (P03952 391-638): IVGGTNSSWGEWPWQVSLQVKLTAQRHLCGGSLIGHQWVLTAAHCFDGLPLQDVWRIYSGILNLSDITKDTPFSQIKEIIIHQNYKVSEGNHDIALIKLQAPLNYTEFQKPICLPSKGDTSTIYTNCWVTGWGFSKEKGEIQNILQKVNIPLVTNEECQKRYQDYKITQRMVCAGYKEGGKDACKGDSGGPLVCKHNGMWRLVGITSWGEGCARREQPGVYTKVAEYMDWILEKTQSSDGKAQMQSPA
Sequence of human activated kallikrein enzyme (plasma kallikrein) (P03952 20-390 partner): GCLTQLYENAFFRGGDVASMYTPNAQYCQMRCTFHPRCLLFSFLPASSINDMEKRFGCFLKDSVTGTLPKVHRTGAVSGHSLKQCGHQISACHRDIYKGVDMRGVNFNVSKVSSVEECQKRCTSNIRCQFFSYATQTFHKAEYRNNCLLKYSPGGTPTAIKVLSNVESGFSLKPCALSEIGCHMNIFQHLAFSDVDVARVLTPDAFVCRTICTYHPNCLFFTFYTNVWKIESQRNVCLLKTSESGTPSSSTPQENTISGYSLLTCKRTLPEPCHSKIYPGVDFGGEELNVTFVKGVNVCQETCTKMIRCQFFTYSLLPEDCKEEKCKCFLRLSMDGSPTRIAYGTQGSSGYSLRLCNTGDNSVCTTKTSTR

Row | SMILES | EC50 [nM]
1 | O=C(NCc1ncn2ccc(Cl)cc12)c1cn(Cc2cn3cc(C4CC4)ccc3n2)c2cccnc12 [Example I-29, N-((7-chloroimidazo[1,5-a]pyridin-1-yl)methyl)-1-((6-cyclopropylimidazo[1,2-a]pyridin-2-yl)methyl)-1H-pyrrolo[3,2-b]pyridine-3-carboxamide] | 10 to 100
2 | O=C(NCc1ncn2ccc(Br)cc12)c1cn(Cc2cn3cc(C4CC4)ccc3n2)c2cccnc12 [Example I-30, N-((7-bromoimidazo[1,5-a]pyridin-1-yl)methyl)-1-((6-cyclopropylimidazo[1,2-a]pyridin-2-yl)methyl)-1H-pyrrolo[3,2-b]pyridine-3-carboxamide] | 1 to 10

Same assay, conditions: 500 pM activated kallikrein enzyme, 300 uM Pro-Phe-Arg-7-amido-4-methylcoumarin substrate, 30 min preincubation, 10 min at RT; read-out: Primary Dose Response Assay: Average EC50

Row | SMILES | EC50 [nM]
3 | O=C(NCc1ncn2ccc(Cl)cc12)c1cnn(Cc2ccc3ncc(Cl)cc3c2)c1 [Example I-1, N-((7-chloroimidazo[1,5-a]pyridin-1-yl)methyl)-1-((3-chloroquinolin-6-yl)methyl)-1H-pyrazole-4-carboxamide] | 10 to 100
4 | O=C(NCc1ncn2ccc(Cl)cc12)c1cnn(Cc2cn3cc(C4CC4)ccc3n2)c1 [Example I-2, N-((7-chloroimidazo[1,5-a]pyridin-1-yl)methyl)-1-((6-cyclopropylimidazo[1,2-a]pyridin-2-yl)methyl)-1H-pyrazole-4-carboxamide] | < 1
5 | O=C(NCc1ncn2ccc(Cl)cc12)c1ccnc(Cc2ccc3ncc(Cl)cc3c2)c1 [Example I-3, N-((7-chloroimidazo[1,5-a]pyridin-1-yl)methyl)-2-((3-chloroquinolin-6-yl)methyl)isonicotinamide] | 10 to 100
6 | Cc1ccn2cnc(CNC(=O)c3cnn(Cc4cn5cc(C6CC6)ccc5n4)c3)c2c1 [Example I-4, 1-((6-cyclopropylimidazo[1,2-a]pyridin-2-yl)methyl)-N-((7-methylimidazo[1,5-a]pyridin-1-yl)methyl)-1H-pyrazole-4-carboxamide] | 1 to 10
7 | O=C(NCc1ncn2ccc(Br)cc12)c1cnn(Cc2cn3cc(C4CC4)ccc3n2)c1 [Example I-5, N-((7-bromoimidazo[1,5-a]pyridin-1-yl)methyl)-1-((6-cyclopropylimidazo[1,2-a]pyridin-2-yl)methyl)-1H-pyrazole-4-carboxamide] | < 1
8 | O=C(NCc1ncn2ccc(Cl)cc12)c1cnn(Cc2nc3ccc(C4CC4)cn3n2)c1 [Example I-6, N-((7-chloroimidazo[1,5-a]pyridin-1-yl)methyl)-1-((6-cyclopropyl-[1,2,4]triazolo[1,5-a]pyridin-2-yl)methyl)-1H-pyrazole-4-carboxamide] | 1 to 10
9 | Cc1c(Cl)ccc2nc(Cn3cc(C(=O)NCc4ncn5ccc(Cl)cc45)cn3)cn12 [Example I-7, 1-((6-chloro-5-methylimidazo[1,2-a]pyridin-2-yl)methyl)-N-((7-chloroimidazo[1,5-a]pyridin-1-yl)methyl)-1H-pyrazole-4-carboxamide] | 1 to 10
10 | CC(C)c1ccc2nc(Cn3cc(C(=O)NCc4ncn5ccc(Cl)cc45)cn3)cn2c1 [Example I-8, N-((7-chloroimidazo[1,5-a]pyridin-1-yl)methyl)-1-((6-isopropylimidazo[1,2-a]pyridin-2-yl)methyl)-1H-pyrazole-4-carboxamide] | < 1
11 | Cc1cccc2nc(Cn3cc(C(=O)NCc4ncn5ccc(Cl)cc45)cn3)cn12 [Example I-9, N-((7-chloroimidazo[1,5-a]pyridin-1-yl)methyl)-1-((5-methylimidazo[1,2-a]pyridin-2-yl)methyl)-1H-pyrazole-4-carboxamide] | 10 to 100
12 | CC1(c2ccc3nc(Cn4cc(C(=O)NCc5ncn6ccc(Cl)cc56)cn4)cn3c2)CC1 [Example I-10, N-((7-chloroimidazo[1,5-a]pyridin-1-yl)methyl)-1-((6-(1-methylcyclopropyl)imidazo[1,2-a]pyridin-2-yl)methyl)-1H-pyrazole-4-carboxamide] | < 1
13 | Cc1c(C2CC2)ccc2nc(Cn3cc(C(=O)NCc4ncn5ccc(Cl)cc45)cn3)cn12 [Example I-13, N-((7-chloroimidazo[1,5-a]pyridin-1-yl)methyl)-1-((6-cyclopropyl-5-methylimidazo[1,2-a]pyridin-2-yl)methyl)-1H-pyrazole-4-carboxamide] | < 1
14 | O=C(NCc1ncn2ccc(Cl)cc12)c1cnn(Cc2cn3nc(C4CC4)ccc3n2)c1 [Example I-15, N-((7-chloroimidazo[1,5-a]pyridin-1-yl)methyl)-1-((6-cyclopropylimidazo[1,2-b]pyridazin-2-yl)methyl)-1H-pyrazole-4-carboxamide] | < 1
15 | Cc1cc2nc(Cn3cc(C(=O)NCc4ncn5ccc(Cl)cc45)cn3)cn2cc1C1CC1 [Example I-16, N-((7-chloroimidazo[1,5-a]pyridin-1-yl)methyl)-1-((6-cyclopropyl-7-methylimidazo[1,2-a]pyridin-2-yl)methyl)-1H-pyrazole-4-carboxamide] | 1 to 10
16 | Cc1cc2nc(Cn3cc(C(=O)NCc4ncn5ccc(Br)cc45)cn3)cn2cc1C1CC1 [Example I-17, N-((7-bromoimidazo[1,5-a]pyridin-1-yl)methyl)-1-((6-cyclopropyl-7-methylimidazo[1,2-a]pyridin-2-yl)methyl)-1H-pyrazole-4-carboxamide] | 1 to 10
17 | O=C(NCc1ncn2ccc(Cl)cc12)c1cnn(Cc2cn3cc(C(F)(F)F)ccc3n2)c1 [Example I-18, N-((7-chloroimidazo[1,5-a]pyridin-1-yl)methyl)-1-((6-(trifluoromethyl)imidazo[1,2-a]pyridin-2-yl)methyl)-1H-pyrazole-4-carboxamide] | 1 to 10
18 | O=C(NCc1ncn2ccc(Br)cc12)c1cnn(Cc2cn3cc(C(F)(F)F)ccc3n2)c1 [Example I-19, N-((7-bromoimidazo[1,5-a]pyridin-1-yl)methyl)-1-((6-(trifluoromethyl)imidazo[1,2-a]pyridin-2-yl)methyl)-1H-pyrazole-4-carboxamide] | 1 to 10
19 | O=C(NCc1ncn2ccc(Br)cc12)c1cnn(Cc2cn3cc(C4CC4)c(F)cc3n2)c1 [Example I-20, N-((7-bromoimidazo[1,5-a]pyridin-1-yl)methyl)-1-((6-cyclopropyl-7-fluoroimidazo[1,2-a]pyridin-2-yl)methyl)-1H-pyrazole-4-carboxamide] | 1 to 10
20 | O=C(NCc1ncn2ccc(Cl)cc12)c1cnn(Cc2cn3cc(C4CC4)c(F)cc3n2)c1 [Example I-21, N-((7-chloroimidazo[1,5-a]pyridin-1-yl)methyl)-1-((6-cyclopropyl-7-fluoroimidazo[1,2-a]pyridin-2-yl)methyl)-1H-pyrazole-4-carboxamide] | 1 to 10
21 | O=C(NCc1ncn2ccc(Cl)cc12)c1cnn(Cc2cn3c(C4CC4)cccc3n2)c1 [Example I-22, N-((7-chloroimidazo[1,5-a]pyridin-1-yl)methyl)-1-((5-cyclopropylimidazo[1,2-a]pyridin-2-yl)methyl)-1H-pyrazole-4-carboxamide] | 100 to 2000
22 | O=C(NCc1ncn2ccc(Cl)cc12)c1cnn(Cc2cn3c(Cl)c(C4CC4)ccc3n2)c1 [Example I-23, 1-((5-chloro-6-cyclopropylimidazo[1,2-a]pyridin-2-yl)methyl)-N-((7-chloroimidazo[1,5-a]pyridin-1-yl)methyl)-1H-pyrazole-4-carboxamide] | < 1
23 | O=C(NCc1ncn2ccc(Cl)cc12)c1cnn(Cc2cn3cc(C4CC4)c(Cl)cc3n2)c1 [Example I-24, 1-((7-chloro-6-cyclopropylimidazo[1,2-a]pyridin-2-yl)methyl)-N-((7-chloroimidazo[1,5-a]pyridin-1-yl)methyl)-1H-pyrazole-4-carboxamide] | 1 to 10
24 | O=C(NCc1ncn2ccc(Br)cc12)c1cnn(Cc2cn3cc(C4CC4)c(Cl)cc3n2)c1 [Example I-25, N-((7-bromoimidazo[1,5-a]pyridin-1-yl)methyl)-1-((7-chloro-6-cyclopropylimidazo[1,2-a]pyridin-2-yl)methyl)-1H-pyrazole-4-carboxamide] | 1 to 10
25 | Cc1ccc2nc(Cn3cc(C(=O)NCc4ncn5ccc(Br)cc45)cn3)cn2c1C [Example I-26, N-((7-bromoimidazo[1,5-a]pyridin-1-yl)methyl)-1-((5,6-dimethylimidazo[1,2-a]pyridin-2-yl)methyl)-1H-pyrazole-4-carboxamide] | 1 to 10
26 | O=C(NCc1ncn2ccc(Cl)cc12)c1cnn(Cc2cn3c(Br)cccc3n2)c1 [Example I-27, 1-((5-bromoimidazo[1,2-a]pyridin-2-yl)methyl)-N-((7-chloroimidazo[1,5-a]pyridin-1-yl)methyl)-1H-pyrazole-4-carboxamide] | 1 to 10
27 | Cc1cc2nc(Cn3cc(C(=O)NCc4ncn5ccc(Cl)cc45)cn3)cn2cc1Br [Example I-28, 1-((6-bromo-7-methylimidazo[1,2-a]pyridin-2-yl)methyl)-N-((7-chloroimidazo[1,5-a]pyridin-1-yl)methyl)-1H-pyrazole-4-carboxamide] | 1 to 10
28 | COCc1nn(Cc2cn3cc(C4CC4)ccc3n2)cc1C(=O)NCc1ncn2ccc(Cl)cc12 [Example I-31, N-((7-chloroimidazo[1,5-a]pyridin-1-yl)methyl)-1-((6-cyclopropylimidazo[1,2-a]pyridin-2-yl)methyl)-3-(methoxymethyl)-1H-pyrazole-4-carboxamide] | < 1
